From ChEMBL document CHEMBL1201862, “PubChem BioAssay data set” (2004)
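A five-concentration, 48-hour dose response in 96-well plates underlies each endpoint, interpolated linearly between surrounding concentrations. Abbreviation: GI50, concentration required for 50% inhibition of growth.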 Activity calls are given as the source filed them. Rule as the data show it: active = GI50 up to about 1.1 µM and inactive = higher.

How the values were obtained:
Assay in all cases: NCI-60 cell line screen, 48 h
UACC-257 = test system: UACC-257
SF-295 = test system: SF-295
SK-MEL-28 = test system: SK-MEL-28
OVCAR-4 = test system: OVCAR-4
HCT-15 = test system: HCT-15
SW-620 = test system: SW-620
KM12 = test system: KM12
HL-60 = test system: HL-60
TK-10 = test system: TK-10
MDA-N = test system: MDA-N
PC-3 = test system: PC-3
K562 = test system: K562
A549 = test system: A549
NCI-H23 = test system: NCI-H23
SF-268 = test system: SF-268
OVCAR-5 = test system: OVCAR-5
SK-OV-3 = test system: SK-OV-3
HCC 2998 = test system: HCC 2998
HCT-116 = test system: HCT-116
COLO 205 = test system: COLO 205
ACHN = test system: ACHN
SNB-75 = test system: SNB-75
MCF7 = test system: MCF7
HOP-62 = test system: HOP-62
UO-31 = test system: UO-31
HOP-92 = test system: HOP-92
NCI-H522 = test system: NCI-H522
CCRF-CEM = test system: CCRF-CEM
Hs-578T = test system: Hs-578T
RXF 393 = test system: RXF 393
UACC-62 = test system: UACC-62
IGROV-1 = test system: IGROV-1
NCI-H460 = test system: NCI-H460
MDA-MB-435 = test system: MDA-MB-435
SK-MEL-5 = test system: SK-MEL-5
SF-539 = test system: SF-539
NCI-H226 = test system: NCI-H226
HT-29 = test system: HT-29
OVCAR-8 = test system: OVCAR-8
786-0 = test system: 786-0
BT-549 = test system: BT-549
CAKI-1 = test system: CAKI-1
M14 = test system: M14
SK-MEL-2 = test system: SK-MEL-2
OVCAR-3 = test system: OVCAR-3
SN12C = test system: SN12C
NCI/ADR-RES = test system: NCI/ADR-RES
U-251 = test system: U-251
DU-145 = test system: DU-145
SR = test system: SR
LOX IMVI = test system: LOX IMVI
SNB-19 = test system: SNB-19
RPMI-8226 = test system: RPMI-8226
EKVX = test system: EKVX
T47D = test system: T47D
MDA-MB-231 = test system: MDA-MB-231
A498 = test system: A498
Malme-3M = test system: Malme-3M
MOLT-4 = test system: MOLT-4

Nc1ccc(Oc2ccc(C34CC5CC(C3)CC(c3ccc(Oc6ccc(N)cc6)cc3)(C5)C4)cc2)cc1
GI50 (UACC-257): 9.86 µM (inactive) | GI50 (SF-295): 10.3 µM (inactive) | GI50 (SK-MEL-28): 18.9 µM (inactive) | GI50 (OVCAR-4): 8.79 µM (inactive) | GI50 (HCT-15): 10.8 µM | GI50 (SW-620): > 25.5 µM (inactive) | GI50 (KM12): 7.67 µM (inactive) | GI50 (HL-60): > 41.3 µM (inactive) | GI50 (TK-10): 10.3 µM (inactive) | GI50 (MDA-N): 8.71 µM (inactive) | GI50 (PC-3): 6.28 µM (inactive) | GI50 (K562): 15.8 µM (inactive) | GI50 (A549): 11.1 µM (inactive) | GI50 (NCI-H23): 7.8 µM (inactive) | GI50 (SF-268): 9.66 µM (inactive) | GI50 (OVCAR-5): 18.6 µM (inactive) | GI50 (SK-OV-3): 22.2 µM (inactive) | GI50 (HCC 2998): 4.9 µM (inactive) | GI50 (HCT-116): 7.55 µM (inactive) | GI50 (COLO 205): 14.5 µM (inactive) | GI50 (ACHN): 19.5 µM (inactive) | GI50 (SNB-75): 24 µM (inactive) | GI50 (MCF7): 4.81 µM (inactive) | GI50 (HOP-62): 17.5 µM (inactive) | GI50 (UO-31): 33 µM (inactive) | GI50 (HOP-92): 6.05 µM (inactive) | GI50 (NCI-H522): 11.9 µM (inactive) | GI50 (CCRF-CEM): > 22 µM (inactive) | GI50 (Hs-578T): 20.2 µM (inactive) | GI50 (RXF 393): 12.8 µM (inactive) | GI50 (UACC-62): 10.4 µM (inactive) | GI50 (IGROV-1): 5.38 µM (inactive) | GI50 (NCI-H460): 10.7 µM (inactive) | GI50 (MDA-MB-435): 7.53 µM (inactive) | GI50 (SK-MEL-5): 12.6 µM (inactive) | GI50 (SF-539): 13.7 µM (inactive) | GI50 (NCI-H226): 26.5 µM (inactive) | GI50 (HT-29): 8.11 µM (inactive) | GI50 (OVCAR-8): 5.26 µM (inactive) | GI50 (786-0): 10.2 µM (inactive) | GI50 (BT-549): 8.69 µM (inactive) | GI50 (CAKI-1): 13.5 µM (inactive) | GI50 (M14): 10.4 µM (inactive) | GI50 (SK-MEL-2): 13.1 µM (inactive) | GI50 (OVCAR-3): 7.66 µM (inactive) | GI50 (SN12C): 12.5 µM (inactive) | GI50 (NCI/ADR-RES): 13.9 µM (inactive) | GI50 (U-251): 5.43 µM (inactive) | GI50 (DU-145): 7.43 µM (inactive) | GI50 (SR): 3.56 µM (inactive) | GI50 (LOX IMVI): 6.25 µM (inactive) | GI50 (SNB-19): 12 µM (inactive) | GI50 (RPMI-8226): 4.14 µM (inactive) | GI50 (EKVX): 25.4 µM (inactive) | GI50 (T47D): 6.84 µM (inactive) | GI50 (MDA-MB-231): 11.1 µM (inactive) | GI50 (A498): 12 µM (inactive) | GI50 (Malme-3M): 11.6 µM (inactive)

COC(=O)/C=C(/C=C1/C(C#N)=C(N)N(c2ccc(Cl)cc2)C1(C)/C(=C\C(=O)OC)C(=O)OC)C(=O)OC (configuration not stated)
GI50 (UACC-257): 18.9 µM (inactive) | GI50 (SF-295): 22.8 µM (inactive) | GI50 (MOLT-4): 23.3 µM (inactive) | GI50 (SK-MEL-28): 18.9 µM (inactive) | GI50 (OVCAR-4): 18.9 µM (inactive) | GI50 (HCT-15): 18.5 µM | GI50 (SW-620): 15.9 µM (inactive) | GI50 (KM12): 17.2 µM (inactive) | GI50 (HL-60): 13.7 µM (inactive) | GI50 (TK-10): 29.4 µM (inactive) | GI50 (MDA-N): 16.2 µM (inactive) | GI50 (PC-3): 12.9 µM (inactive) | GI50 (K562): 23.1 µM (inactive) | GI50 (A549): 28.2 µM (inactive) | GI50 (NCI-H23): 19.2 µM (inactive) | GI50 (SF-268): 19.5 µM (inactive) | GI50 (OVCAR-5): 21.3 µM (inactive) | GI50 (SK-OV-3): 33.7 µM (inactive) | GI50 (HCC 2998): 20 µM (inactive) | GI50 (HCT-116): 15.8 µM (inactive) | GI50 (COLO 205): 15 µM (inactive) | GI50 (ACHN): 22.6 µM (inactive) | GI50 (SNB-75): 25.6 µM (inactive) | GI50 (MCF7): 20.7 µM (inactive) | GI50 (HOP-62): 35.9 µM (inactive) | GI50 (UO-31): 17.9 µM (inactive) | GI50 (HOP-92): 5.71 µM (inactive) | GI50 (NCI-H522): 5.69 µM (inactive) | GI50 (CCRF-CEM): 16.3 µM (inactive) | GI50 (Hs-578T): 42.8 µM (inactive) | GI50 (RXF 393): 19.2 µM (inactive) | GI50 (UACC-62): 12.9 µM (inactive) | GI50 (IGROV-1): 21.5 µM (inactive) | GI50 (NCI-H460): 19.5 µM (inactive) | GI50 (MDA-MB-435): 18.5 µM (inactive) | GI50 (SK-MEL-5): 15.1 µM (inactive) | GI50 (SF-539): 15.4 µM (inactive) | GI50 (NCI-H226): 24.1 µM (inactive) | GI50 (HT-29): 17 µM (inactive) | GI50 (OVCAR-8): 17.3 µM (inactive) | GI50 (786-0): 18.1 µM (inactive) | GI50 (BT-549): 15.7 µM (inactive) | GI50 (CAKI-1): 22.8 µM (inactive) | GI50 (M14): 19.5 µM (inactive) | GI50 (SK-MEL-2): 32.1 µM (inactive) | GI50 (OVCAR-3): 18.4 µM (inactive) | GI50 (SN12C): 21.6 µM (inactive) | GI50 (NCI/ADR-RES): 16.8 µM (inactive) | GI50 (U-251): 26.1 µM (inactive) | GI50 (DU-145): 35.5 µM (inactive) | GI50 (SR): 28.5 µM (inactive) | GI50 (LOX IMVI): 17.1 µM (inactive) | GI50 (SNB-19): 41.9 µM (inactive) | GI50 (RPMI-8226): 25.1 µM (inactive) | GI50 (EKVX): 43.9 µM (inactive) | GI50 (T47D): 18.3 µM (inactive) | GI50 (MDA-MB-231): 29.2 µM (inactive) | GI50 (A498): 44.8 µM (inactive) | GI50 (Malme-3M): 25.1 µM (inactive)
